According to EP4755396A1, “TREATMENT OF P53 GENE MUTATION OR DEFECT NEGATIVE CANCER AND TUMOR PATIENTS” (Ascentawits Pharmaceuticals, Ltd., priority 2023, dated 2025):
pIC50: −log10 of the molar value. Like-named read-outs stand apart in the source and are kept apart here.

Tests used:
[1] = system: HPAF-II cells; test: In vitro cell proliferation inhibition (96-well, CTG, 72 hours); type: cell-based; conditions: for inhibition at 7.5 µM / inhibition at 10 µM / inhibition at 15 µM / inhibition at 0.06 µM / inhibition at 0.2 µM / inhibition at 1.667 µM / inhibition at 5 µM: Homo sapiens, HPAF-II cells, 72 hours; for inhibition at 7.5 µM: Nutlin-3 7.5 µM; for inhibition at 10 µM: Nutlin-3 10 µM; for inhibition at 15 µM: Nutlin-3 15 µM; for inhibition at 0.2 µM: AST 200 nM; for inhibition at 1.667 µM: AST 1667 nM; for inhibition at 5 µM: AST 5000 nM
Method: (§1) • 1) H460 and HPAF-II cell suspensions were added to a 96-well plate at 100 µL per well, with a cell density of 2000 /well and 20000/well, respectively. • 2) The cells were cultured overnight in an incubator at 37°C, 5% CO2. • 3) Compound Treatment
(§2) Combination therapy: After 24 hours of cell plating, 99 µL of growth medium was supplied to each well. Each well was added with 0.5 µL of Nutlin-3 or RITA, shaken gently to ensure even mixing, and then placed in an incubator for 2 hours. Then each well was added with 0.5µL of test compounds at different concentrations, shaken gently to ensure even mixing, and then placed at 37°C, 5% CO2 in an incubator.
(§3) Monotherapy: After 24 hours of cell plating, 99.5 µL of growth medium was supplied to each well. Then each well was added with 0.5µL of test compounds at different concentrations, shaken gently to ensure even mixing, and then placed at 37°C, 5% CO2 in an incubator.
(§4) 4) The cell plate was placed in the incubator for 72 hours.
(§5) 5) The cell plate to be tested was placed at room temperature to equilibrium for 30 minutes, and 100µL of medium was discarded per well.
(§6) 6) 25µL of CTG reagent was added to each well, placed at a fast shaker to shake for 2 minutes, and placed at room temperature away from light for 30 minutes.
(§7) 7) The chemiluminescence signal value was read using a multifunctional microplate reader with a reading time of 1000 ms. The corresponding inhibition rate data were calculated.

[2] = system: H460 cells; test: In vitro cell proliferation inhibition under normoxia (96-well, CTG, 72 hours); type: cell-based, human; conditions: for inhibition at 0.25 µM / inhibition at 0.5 µM / inhibition at 1 µM / pIC50 / inhibition at 0.0005 µM / inhibition at 0.0015 µM: Homo sapiens; for inhibition at 0.25 µM: Nutlin-3 0.25 µM; for inhibition at 0.5 µM: Nutlin-3 0.5 µM; for inhibition at 1 µM: Nutlin-3 1 µM
Method: Overview of the experimental process • 1) H460 cell suspension was added to a 96-well plate at 100 µL per well, with a cell density of 2000 /well. • 2) The cells were cultured overnight in an incubator at 37°C, 5% CO2. • 3) Compound Treatment
Monotherapy: After 24 hours of cell plating, each well was supplied with 99.5 µL of growth medium then added with 0.5µL of test compounds at different concentrations, shaken gently to ensure even mixing, and then placed at 37°C, 5% CO2 in an incubator.
as §2, with “plating, each well was supplied with” for “plating,”, “then” for “was supplied to each well. Each well was”, “0.5µL” for “0.5 µL”, “the combined action compound Nutlin-3,” for “Nutlin-3 or RITA,”
as §4, §5, §6
(§8) 7) The chemiluminescence signal value was read using a multifunctional microplate reader with a reading time of 1000 ms.
8) IC50 was calculated with Graph Pad Prism 5 software.
as §1, §2, §3, §7
(§9) • 1) NCI-H460, NCI-H460 P53KO # 1 cell suspensions were added to a 96-well plate at 100 µL per well, with a cell density of 2000 /well. • 2) The cells were cultured overnight in an incubator at 37°C, 5% CO2. • 3) Compound Treatment
as §2, with “of” for “of growth”, “0.5µL” for “0.5 µL”, “combined action compound,” for “Nutlin-3 or RITA,”
(§10) 8) The ICso (half maximal inhibitory concentration) values were calculated using GraphPad Prism 5 software.

[3] = system: H460 cells; test: Cell cycle G2/M arrest, PI staining flow cytometry; type: cell-based; conditions: for cell cycle (G0/G1, S, G2/M phases): first experiment, 0.1 nM AST-3424, 5 µM Nutlin-3, 24 hours, combination: AST-3424 first (Figure 5)
Method: Overview of the experimental process: • 1) H460/HPAF-II cell suspensions were added to a 24-well plate, with a cell density of 100000 /well and 995 µL of medium per well. • 2) The cells were cultured overnight in an incubator at 37°C, 5% CO2. • 3) Compound Treatment
4) The cells were digested, centrifuged at 1000 g at 4°C, washed once with pre-cooled PBS, centrifuged at 1000 g at 4°C, and fixed with 1 mL of pre-cooled 70% ethanol at -20°C overnight.
5) The cells were centrifuged at 3000g at 4°C, washed once with pre-cooled PBS (phosphate buffer), centrifuged at 3000g at 4°C. Prepare PI staining solution. The cells were stained at 37°C away from light for 30 minutes, and stored in an ice bath away from light. Flow cytometric detection was performed on the same day, and the proportion of cells in different cell cycle phases was analyzed using FlowJo.

[4] = system: H460 P53 KO #1; test: In vitro cell proliferation inhibition under normoxia, p53 knockout cells; type: cell-based, human; conditions: for pIC50: Homo sapiens, 72 hours
Method: (§11) The p53 CRISPR/Cas9 KO plasmid (human) and p53 HDR plasmid (human) were purchased from Santa Cruz Company to construct H460 P53 KO cell lines, namely p53 knockout (KnockOut) H460 cell lines. Three groups of H460 P53 KO cell lines were constructed with numbers of H460 P53 KO # 1, H460 P53 KO # 7, and H460 P53 KO # 12.
(§12) After co-incubation for 15 minutes, they were added dropwise to the culture medium and mixed well.
(§13) After 48 h, 2 µg/mL puromycin was added for screening.
(§14) When the cell colonies grew to a sufficient size, single colonies were picked and cultured.
(§15) When the cell number reached a sufficient quantity, samples were collected for WB identification of the colonies.
(§16) H460 P53 KO cell lines, i.e. H460 P53 KO # 1, H460 P53 KO # 7, H460 P53 KO # 12 cell lines were used in experiments, respectively.
as §9, §3
as §2, with “of” for “of growth”, “0.5µL” for “0.5 µL”, “combined action compound,” for “Nutlin-3 or RITA,”
as §4, §5, §6, §8, §10

[5] = system: H460 P53 KO #7; test: as above; type: cell-based, human; conditions: for pIC50: Homo sapiens, NCI-H460, H460 P53 KO # 7, normoxia, 72 hours, alone or with 3µM AST-3021 as labelled (Example 10)
Method: as §11, §12, §13, §14, §15, §16

[6] = system: H460 P53 KO #12; test: as above; type: cell-based, human; conditions: for pIC50: Homo sapiens, NCI-H460, H460 P53 KO # 12, normoxia, 72 hours, alone or with 3µM AST-3021 as labelled (Example 10)
Method: as §11, §12, §13, §14, §15, §16

COc1ccc(C2=NC(c3ccc(Cl)cc3)C(c3ccc(Cl)cc3)N2C(=O)N2CCNC(=O)C2)c(OC(C)C)c1 (racemic) [Nutlin-3]
inhibition at 7.5 µM ([1]; AST 20 nM, AST+Nutlin-3 20+7.5, read-out: Inhibition rate result, experimental group 1): 8.54%
inhibition at 10 µM ([1]; AST 20 nM, AST+Nutlin-3 20+10, read-out: Inhibition rate result, experimental group 2): 52.5%
inhibition at 15 µM ([1]; AST 20 nM, AST+Nutlin-3 20+15, read-out: Inhibition rate result, experimental group 3): 73.9%
inhibition at 7.5 µM ([1]; AST 60 nM, AST+Nutlin-3 60+7.5, read-out: Inhibition rate result, experimental group 4): 8.54%
inhibition at 10 µM ([1]; AST 60 nM, AST+Nutlin-3 60+10, read-out: Inhibition rate result, experimental group 5): 52.5%
inhibition at 15 µM ([1]; AST 60 nM, AST+Nutlin-3 60+15, read-out: Inhibition rate result, experimental group 6): 73.9%
inhibition at 0.25 µM ([2]; NCI-H460, H460 cells, 72 hours, AST 0.5 nM, AST+Nutlin-3 0.5+0.25, read-out: Inhibition rate result, experimental group 1): 11.8%
inhibition at 0.5 µM ([2]; NCI-H460, H460 cells, 72 hours, AST 0.5 nM, AST+Nutlin-3 0.5+0.5, read-out: Inhibition rate result, experimental group 2): 17.3%
inhibition at 1 µM ([2]; NCI-H460, H460 cells, 72 hours, AST 0.5 nM, AST+Nutlin-3 0.5+1, read-out: Inhibition rate result, experimental group 3): 18.3%
inhibition at 0.25 µM ([2]; NCI-H460, H460 cells, 72 hours, AST 1.5 nM, AST+Nutlin-3 1.5+0.25, read-out: Inhibition rate result, experimental group 4): 11.8%
inhibition at 0.5 µM ([2]; NCI-H460, H460 cells, 72 hours, AST 1.5 nM, AST+Nutlin-3 1.5+0.5, read-out: Inhibition rate result, experimental group 5): 17.3%
inhibition at 1 µM ([2]; NCI-H460, H460 cells, 72 hours, AST 1.5 nM, AST+Nutlin-3 1.5+1, read-out: Inhibition rate result, experimental group 6): 18.3%
cell cycle (G0/G1, S, G2/M phases) [3]: did not significantly alter the cell cycle

O=[N+]([O-])c1ccc(C(OP(=O)(N2CC2)N2CC2)C(F)(F)F)cc1Oc1ccc(-c2ccc(F)cc2)c(F)c1 (centres unmarked) [AST]
concentration needed to achieve an inhibition rate of 11-12% ([1]; AST monotherapy, p53 mutant HPAF-II cells): 60 nM
inhibition at 0.06 µM ([1]; AST 60 nM, RITA 2.5 µM, AST + RITA 60+2.5, read-out: Inhibition rate, experimental group 1): 14.9%
inhibition at 0.06 µM ([1]; AST 60 nM, RITA 5 µM, AST + RITA 60+5, read-out: Inhibition rate, experimental group 2): 14.9%
inhibition at 0.2 µM ([1]; RITA 2.5 µM, AST + RITA 200+2.5, read-out: Inhibition rate, experimental group 3): 11.8%
inhibition at 0.2 µM ([1]; RITA 5 µM, AST + RITA 200+5, read-out: Inhibition rate, experimental group 4): 11.8%
inhibition at 1.667 µM ([1]; RITA 2.5 µM, AST + RITA 1667+2.5, read-out: Inhibition rate, experimental group 5): 74.3%
inhibition at 1.667 µM ([1]; RITA 5 µM, AST + RITA 1667+5, read-out: Inhibition rate, experimental group 6): 74.3%
inhibition at 5 µM ([1]; RITA 2.5 µM, AST + RITA 5000+2.5, read-out: Inhibition rate, experimental group 7): 68.8%
inhibition at 5 µM ([1]; RITA 5 µM, AST + RITA 5000+5, read-out: Inhibition rate, experimental group 8): 68.8%
pIC50 ([4]; NCI-H460, H460 P53 KO # 1, normoxia, alone or with 3µM AST-3021 as labelled (Example 10)): 6.58
Ratio (monotherapy), knockout/wild ([4]; IC50 ratio, H460 P53 KO # 1 versus H460 WT): 103.53
concentration required to achieve an inhibition rate of 11-12% ([2]; AST monotherapy, p53 wild-type H460 cells): 1.5 nM
pIC50 ([2]; NCI-H460, H460 WT, normoxia, 72 hours, alone or with 3µM AST-3021 as labelled (Example 10), read-out: IC50): 8.59
inhibition at 0.0005 µM ([2]; NCI-H460, H460 cells, 72 hours, AST 0.5 nM, RITA 0.025 µM, AST + RITA 0.5+0.025, read-out: Inhibition rate result, experimental group 1): -0.29%
inhibition at 0.0005 µM ([2]; NCI-H460, H460 cells, 72 hours, AST 0.5 nM, RITA 0.05 µM, AST + RITA 0.5+0.05, read-out: Inhibition rate result, experimental group 2): -0.29%
inhibition at 0.0015 µM ([2]; NCI-H460, H460 cells, 72 hours, AST 1.5 nM, RITA 0.025 µM, AST + RITA 1.5+0.025, read-out: Inhibition rate result, experimental group 3): 12.2%
inhibition at 0.0015 µM ([2]; NCI-H460, H460 cells, 72 hours, AST 1.5 nM, RITA 0.05 µM, AST + RITA 1.5+0.05, read-out: Inhibition rate result, experimental group 4): 12.2%
pIC50 ([2]; NCI-H460, H460 cells, monotherapy, applicant's previous cancer cell proliferation inhibition test data, read-out: IC50): 8.16
pIC50 [5]: 6.66
Ratio (monotherapy), knockout/wild ([5]; IC50 ratio, H460 P53 KO # 7 versus H460 WT): 86.08
pIC50 [6]: 7.55
Ratio (monotherapy), knockout/wild ([6]; IC50 ratio, H460 P53 KO # 12 versus H460 WT): 10.96

C[C@H](OP(=O)(N1CC1)N1CC1)c1ccc([N+](=O)[O-])c(Oc2cccc(C(=O)N(C)C)c2)c1 [AST-3424]
pIC50 ([4]; NCI-H460, 72 h, H460 P53 KO # 1, normoxia, alone or with 3µM AST-3021 as labelled (Example 10)): 7.95
pIC50 ([4]; NCI-H460, 72 h, NCI-H460 P53KO # 1, normoxia, alone or with 3 µM AST-3021 as labelled (Example 13)): 8.26
proliferation inhibition rate of AST-3424 ([2]; H460 cells, Nutlin-3 added 2 hours in advance, followed by AST-3424, 72 hours (Figure 1)): increase significantly
pIC50 ([2]; NCI-H460, 72 h, H460 WT, normoxia, 72 hours, alone or with 3µM AST-3021 as labelled (Example 10)): 9.64
pIC50 ([2]; NCI-H460, 72 h, NCI-H460, normoxia, 72 hours, alone or with 3 µM AST-3021 as labelled (Example 13)): 9.37
cell cycle (G0/G1, S, G2/M phases) [3]: did not significantly alter the cell cycle
G2/M cell cycle arrest ([3]; second experiment, 0.03-1 nM AST-3424, 5 µM Nutlin-3, AST-3424 pre-treatment 2 hours (Figure 6)): concentration-dependent G2/M cell cycle arrest
pIC50 [5]: 7.64
pIC50 [6]: 8.70
